Experimental data published in ChEMBL document CHEMBL1201862, “PubChem BioAssay data set” (2004).
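A five-concentration, 48-hour dose response in 96-well plates underlies each endpoint, interpolated linearly between surrounding concentrations. The concentration for 50% growth inhibition is given as GI50.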 The source made the active and inactive calls. Rule as the data show it: active = GI50 up to about 1.1 µM and inactive = higher.

Key:
Test in all cases: NCI anticancer screen, dose series, 48 h
IGROV-1 = test system: IGROV-1
CCRF-CEM = test system: CCRF-CEM
UO-31 = test system: UO-31
COLO 205 = test system: COLO 205
HOP-62 = test system: HOP-62
OVCAR-8 = test system: OVCAR-8
HCC 2998 = test system: HCC 2998
OVCAR-3 = test system: OVCAR-3
EKVX = test system: EKVX
NCI-H23 = test system: NCI-H23
SNB-75 = test system: SNB-75
SW-620 = test system: SW-620
OVCAR-5 = test system: OVCAR-5
SN12C = test system: SN12C
SF-268 = test system: SF-268
M14 = test system: M14
HOP-92 = test system: HOP-92
RXF 393 = test system: RXF 393
NCI-H226 = test system: NCI-H226
Malme-3M = test system: Malme-3M

Measured: GI50

COc1ccc(/C=C/C(=O)C(C)(C)C)cc1OC
inactive: IGROV-1 > 100 µM | CCRF-CEM 36.2 µM | UO-31 > 100 µM | COLO 205 > 100 µM | HOP-62 > 100 µM | OVCAR-8 > 100 µM | HCC 2998 > 100 µM | OVCAR-3 64.7 µM | EKVX > 100 µM | NCI-H23 41.5 µM | SNB-75 34.4 µM | SW-620 79.4 µM | OVCAR-5 > 100 µM | SN12C 65.8 µM | SF-268 78.2 µM | M14 > 100 µM

Cc1cn(C2CC(n3cc(Cn4ccc(=O)[nH]c4=O)nn3)C(CO)O2)c(=O)[nH]c1=O (stereo not drawn)
inactive: CCRF-CEM > 100 µM | UO-31 > 100 µM | COLO 205 > 100 µM | HOP-92 > 100 µM | HOP-62 > 100 µM | OVCAR-8 > 100 µM | RXF 393 > 100 µM | HCC 2998 > 100 µM | OVCAR-3 > 100 µM | NCI-H23 > 100 µM | SNB-75 > 100 µM | SW-620 > 100 µM | OVCAR-5 > 100 µM | SN12C > 100 µM | NCI-H226 > 100 µM | SF-268 > 100 µM | M14 > 100 µM

Cc1ccc(/N=N/C(C2=NC(=O)CS2)c2nc3ccccc3[nH]2)cc1 (stereo not drawn)
inactive: IGROV-1 > 100 µM | CCRF-CEM 29.9 µM | UO-31 > 100 µM | COLO 205 > 100 µM | HOP-92 > 100 µM | HOP-62 27.2 µM | OVCAR-8 > 100 µM | OVCAR-3 > 100 µM | EKVX > 100 µM | NCI-H23 > 100 µM | SNB-75 59.2 µM | SW-620 > 100 µM | OVCAR-5 > 100 µM | SN12C > 100 µM | NCI-H226 6.1 µM | SF-268 38.5 µM | Malme-3M > 100 µM | M14 > 100 µM

CN1CCC(C(=O)NNc2ccccc2)CC1
inactive: IGROV-1 > 36.6 µM | UO-31 3.16 µM | COLO 205 3.08 µM | HOP-92 > 100 µM | HOP-62 14.3 µM | OVCAR-8 9.73 µM | RXF 393 > 100 µM | HCC 2998 5.22 µM | OVCAR-3 16.9 µM | EKVX 34.5 µM | NCI-H23 42.4 µM | SNB-75 > 80.2 µM | SW-620 7.98 µM | OVCAR-5 8.3 µM | SN12C > 100 µM | NCI-H226 > 100 µM | SF-268 7.05 µM | Malme-3M 22.4 µM | M14 1.5 µM

C#CCCCCC#Cc1ccccc1C(=O)OC
inactive: IGROV-1 89.3 µM | CCRF-CEM 2.91 µM | UO-31 40.5 µM | COLO 205 > 100 µM | HOP-92 24.9 µM | HOP-62 > 100 µM | OVCAR-8 15.5 µM | RXF 393 21.4 µM | HCC 2998 > 100 µM | OVCAR-3 32.5 µM | EKVX 85.1 µM | NCI-H23 37.4 µM | SNB-75 20.6 µM | SW-620 21.1 µM | OVCAR-5 52.8 µM | SN12C 35 µM | NCI-H226 43.5 µM | SF-268 21 µM | Malme-3M 77.6 µM | M14 > 100 µM

NC(=O)c1ncn2c1CNC(=O)C2
inactive: IGROV-1 > 100 µM | CCRF-CEM > 100 µM | UO-31 > 100 µM | COLO 205 > 100 µM | HOP-92 > 100 µM | HOP-62 > 100 µM | OVCAR-8 > 100 µM | RXF 393 > 100 µM | HCC 2998 > 100 µM | OVCAR-3 > 100 µM | EKVX > 100 µM | NCI-H23 > 100 µM | SNB-75 > 100 µM | SW-620 > 100 µM | OVCAR-5 > 100 µM | SN12C > 100 µM | NCI-H226 > 100 µM | SF-268 > 100 µM | Malme-3M > 100 µM | M14 > 100 µM

Nc1nc(Cl)cc(NCCCNc2cc(Cl)nc(N)n2)n1
inactive: IGROV-1 > 100 µM | CCRF-CEM > 100 µM | UO-31 > 100 µM | COLO 205 > 100 µM | HOP-92 > 100 µM | HOP-62 > 100 µM | OVCAR-8 > 100 µM | RXF 393 > 100 µM | HCC 2998 > 100 µM | OVCAR-3 > 100 µM | EKVX > 100 µM | NCI-H23 > 100 µM | SNB-75 > 100 µM | SW-620 > 100 µM | OVCAR-5 > 100 µM | SN12C > 100 µM | NCI-H226 > 100 µM | SF-268 > 100 µM | Malme-3M > 100 µM | M14 > 100 µM

Cc1ccc2c(O)cc(-c3ccc(F)cc3)nc2n1
inactive: IGROV-1 25.7 µM | CCRF-CEM 32.1 µM | UO-31 59.2 µM | COLO 205 17.2 µM | HOP-92 19.7 µM | HOP-62 48.8 µM | OVCAR-8 51.1 µM | HCC 2998 44 µM | EKVX 28.7 µM | NCI-H23 41.3 µM | SNB-75 14.1 µM | SW-620 28.6 µM | OVCAR-5 70.1 µM | SN12C 52 µM | NCI-H226 37.1 µM | SF-268 52.7 µM | Malme-3M 32.4 µM | M14 47.6 µM

COc1cc2c(cc1O)CCN(C)[C@H]2Cc1ccc(Oc2c(O)c(OC)cc3c2C[C@H]2c4c(c(OC)c(OC)c(OC)c4-3)CCN2C)cc1 [THALIFABERIDINE]
inactive: IGROV-1 5.43 µM | CCRF-CEM 2.92 µM | UO-31 4.98 µM | COLO 205 7.08 µM | HOP-92 1.69 µM | HOP-62 6.01 µM | OVCAR-8 4.16 µM | RXF 393 1.75 µM | HCC 2998 3.08 µM | OVCAR-3 5.36 µM | EKVX 5.92 µM | NCI-H23 6.41 µM | SNB-75 4.51 µM | SW-620 4.71 µM | OVCAR-5 7.5 µM | SN12C 5.35 µM | NCI-H226 7.46 µM | SF-268 5.66 µM | Malme-3M 7.85 µM | M14 5.4 µM
